# Assay results reported in PMC3554599, “Hydrophobic analogues of rhodamine B and rhodamine 101: potent fluorescent probes of mitochondria in living C. elegans” (Beilstein Journal of Organic Chemistry, 2012).
# Where two headings read alike, the source gives them in different places.
# Assays:
# [1] = system: mitochondria in living C. elegans; assay: Confocal laser scanning microscopy of living adult C. elegans treated with fluorophores; assay type: in vivo; conditions: for bioaccumulation among the fluorophores examined: 100 pM or 1 nM, 20× objective; for selectivity of intracellular staining: living C. elegans; for time to observable fluorescence in some animals / time until most animals became fluorescent: living adult C. elegans
# [2] = Molar extinction coefficient by linear regression of absorbance; assay type: physicochemical
# Method: (§1) The red-shifted spectra of HR101 10 compared with HRB 9 can be explained by greater delocalization of the lone pairs on nitrogen due to restricted rotation about C–N bonds conferred by the fused rings of 10. By using the method of Williams, the quantum yields of 9 and 10 were determined relative to rhodamine B (5) and rhodamine 6G (7, Figure 3, panels A and B), and the extinction coefficients of these compounds were quantified (Figure 3, panel C). The replacement of the carboxylate of rhodamine B (5) and rhodamine 101 (8) with a methyl group slightly red shifted the absorbance and emission spectra in methanol (5 nm and 8 to 9 nm, respectively). […] Additionally, a modest reduction in quantum yield of ~0.3 for both fluorophores was observed.
# (§2) Figure 3 Linear regression used to determine spectroscopic parameters of HRB 9 and HR101 10 in MeOH. Panels A and B: Determination of quantum yields relative to rhodamine B (5) and rhodamine 6G (7). Panel C: Quantification of molar extinction coefficients. TEXT PRINTED IN THE PICTURE: (A) RhB 5: Φ = 0.69 | (A) Rh6G 7: Φ = 0.93 | (B) HRB 9: Φ = 0.39 | (B) HR101 10: Φ = 0.60 | (C) HRB 9: ε555 nm = 83,000 M^-1 cm^-1 | (C) HR101 10: ε576 nm = 107,000 M^-1 cm^-1
# [3] = Quantum yield by the method of Williams in MeOH; assay type: physicochemical; conditions: relative to rhodamine B and rhodamine 6G
# Method: as §1, §2
# [4] = system: C. elegans; conditions: N2, C. elegans, in vivo, 2 h
# [5] = log D by fluorescence-based shake-flask method, octanol/phosphate buffer pH 7.4; assay type: physicochemical; conditions: for enhanced partitioning into octanol compared with aqueous buffer, relative to parent compound: methyl analogue vs parent rhodamine B / rhodamine 101; for logD: octanol/phosphate buffer (1:1), octanol/buffer pH 7.4, fluorescence-based shake-flask, 24 h, 25 °C
# Method: Values of log D were measured by dissolution of solids in 1:1 octanol/phosphate buffer (4 mL total volume, 5 mM phosphate, pH 7.4) to provide 5 mM solutions of the fluorophore. Samples were shaken for 24 h at 25 °C to equilibrate. […] Aliquots of these fractions were diluted in octanol (derived from the top fraction) or buffer (derived bottom fraction) to generate stock solutions (10×) appropriate for analysis. These stock solutions were further diluted 10-fold and analyzed in a solvent mixture comprising ethanol (80%), octanol (10%), and phosphate buffer (10%, pH 7.4). The ratio of fluorescence emission at λmax was used to calculate log D.
# [6] = octanol/neutral buffer, cited from earlier work
# [7] = MeOH; cited from earlier work
# [8] = design: method as in PMID 15571431; conditions: 545 nm in ethanol; cited from earlier work
compound,measurement,setting,value
"CCOC(=O)c1ccccc1-c1c2ccc(=[N+](CC)CC)cc-2oc2cc(N(CC)CC)ccc12 [Basic Violet 11 (6), basic violet 11, reference compound]",bioaccumulation among the fluorophores examined,[1]; 2 h,highest bioaccumulation
same,selectivity of intracellular staining,[1]; 2 h,low selectivity
"Cc1ccccc1C1=c2cc3c4c(c2Oc2c1cc1c5c2CCCN5CCC1)CCC[N+]=4CCC3 [HR101 10, 16-(2-Methylphenyl)-3-oxa-9,23-diazaheptacyclo[17.7.1.1^{5,9}.0^{2,17}.0^{4,15}.0^{23,27}.0^{13,28}]octacosa-1(27),2(17),4,9(28),13,15,18-heptaen-9-ium]",molar extinction coefficient ε576 nm,[2]; 576 nm in MeOH,"107,000 M^-1 cm^-1"
same,quantum yield Φ,[3],0.60
same,concentration conferring some toxicity,[4],≥ 1000 µM
same,"enhanced partitioning into octanol compared with aqueous buffer, relative to parent compound",[5],≥ 10 fold
same,logD,[5],6.2
same,bioaccumulation among the fluorophores examined,[1]; 2 h,highest bioaccumulation
same,selectivity of intracellular staining,[1]; 2 h,most specific mitochondrial stains
same,time to observable fluorescence in some animals,[1],≤ 30 min
same,time until most animals became fluorescent,[1],≤ 2 h
"CCN(CC)c1ccc2c(-c3ccccc3C)c3ccc(=[N+](CC)CC)cc-3oc2c1 [HRB 9, 6-(Diethylamino)-N,N-diethyl-9-(2-methylphenyl)-3H-xanthen-3-imine]",molar extinction coefficient ε555 nm,[2]; 555 nm in methanol,"83,000 M^-1 cm^-1"
same,quantum yield Φ,[3],0.39
same,concentration conferring some toxicity,[4],≥ 1000 µM
same,"enhanced partitioning into octanol compared with aqueous buffer, relative to parent compound",[5],≥ 10 fold
same,logD,[5],5.9
same,bioaccumulation among the fluorophores examined,[1]; 2 h,highest bioaccumulation
same,selectivity of intracellular staining,[1]; 2 h,most specific mitochondrial stains
same,time to observable fluorescence in some animals,[1],≤ 30 min
same,time until most animals became fluorescent,[1],≤ 2 h
"CC/N=c1\cc2oc3cc(NCC)c(C)cc3c(-c3ccccc3C(=O)OCC)c-2cc1C [Rhodamine 6G (7), rhodamine 6G]",log D octanol/buffer,[6]; ref 37,2.1 [37]
same,quantum yield Φ (standard),[7],0.93
same,selectivity of intracellular staining,[1]; 2 h,most specific mitochondrial stains
"O=C([O-])c1ccccc1C1=c2cc3c4c(c2Oc2c1cc1c5c2CCCN5CCC1)CCC[N+]=4CCC3 [Rhodamine 101 (8), rhodamine 101]",logD,[5],5.2
same,"penetration into germline, cells and tissues","[1]; 60× objective, 2 h, rhodamine 101 at 100-fold higher concentration than HRB 9 and HR101 10",did not penetrate into the germline
"COC(=O)c1ccccc1-c1c2ccc(=N)cc-2oc2cc(N)ccc12 [Rhodamine 123 (4), rhodamine 123]",log D octanol/buffer,[6]; listed as rhodamine 123 (4),−0.62
same,log D octanol/buffer,[6]; ref 9,−0.6
same,log D octanol/buffer,[6]; ref 37,0.5
rhodamine B [Rhodamine B (5)],log D octanol/buffer,[6]; ref 46,2.3 [46]
same,molar extinction coefficient,[8],"106,000 M^−1 cm^−1"
same,quantum yield Φ (standard),[7],0.69
